The text below walks through data of patent publication EP4471048A1, “PEPTIDE INHIBITORS OF INTERLEUKIN-23 RECEPTOR” (Zealand Pharma A/S, priority 2023, dated 2024).

Read-outs that look alike come from different tables or passages of the source. *1 amine or outer side, *2 acyl side, *3 side chain or, on linkers, in order; H or OH if unused. Where a SMILES comes first, the peptide text is derived from it. Bridges are numbered along the chain shown (N, C = ends). Where no end group is shown, it is not given here. [ ]: non-standard residue; d: D form. 4‑Aminomethyl‑phenylacetyl = 4-aminomethyl-phenylacetyl unit, its amine closes the lactam, O=C(Cc1ccc(CN[*:1])cc1)[*:2]; Trp(1-Me) = Cn1cc(C[C@H](N)C(=O)O)c2ccccc21; 2Nal = N[C@@H](Cc1ccc2ccccc2c1)C(=O)O; AEF = NCCOc1ccc(C[C@H](N)C(=O)O)cc1; 3Pal = N[C@@H](Cc1cccnc1)C(=O)O; αMeL = CC(C)C[C@](C)(N)C(=O)O; CH2COCH2 = O=C(C[*:1])C[*:2]; β3hK = NCCCC[C@H](N)CC(=O)O; 3Amb = NCc1cccc(C(=O)O)c1; Dab = NCC[C@H](N)C(=O)O; βAla = NCCC(=O)O

Data set [1] concerns the target T1, human IL-23R (Homo sapiens, UniProt Q5VWK5).
T1 sequence (Q5VWK5 22-629): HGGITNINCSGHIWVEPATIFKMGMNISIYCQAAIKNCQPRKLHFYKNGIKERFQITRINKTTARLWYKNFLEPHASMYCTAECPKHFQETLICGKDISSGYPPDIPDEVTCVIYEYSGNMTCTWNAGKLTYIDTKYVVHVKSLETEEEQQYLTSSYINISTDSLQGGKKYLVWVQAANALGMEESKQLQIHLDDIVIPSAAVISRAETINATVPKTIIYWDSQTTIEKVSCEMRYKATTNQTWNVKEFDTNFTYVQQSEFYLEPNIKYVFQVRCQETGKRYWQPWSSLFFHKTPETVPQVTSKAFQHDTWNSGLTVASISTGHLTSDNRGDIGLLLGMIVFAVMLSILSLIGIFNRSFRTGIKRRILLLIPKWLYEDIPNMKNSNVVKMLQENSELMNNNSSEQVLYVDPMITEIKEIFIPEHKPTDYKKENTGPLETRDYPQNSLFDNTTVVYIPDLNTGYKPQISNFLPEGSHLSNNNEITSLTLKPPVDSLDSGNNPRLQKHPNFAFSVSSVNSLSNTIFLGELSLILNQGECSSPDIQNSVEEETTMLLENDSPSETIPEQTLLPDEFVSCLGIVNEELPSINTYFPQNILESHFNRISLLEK
As to the kind of experiment: biochemical. The procedure, abridged: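 BRET displacement of a TAMRA-labelled reference compound from N-terminal Nanoluc-IL-23R fusion protein in membranes from stably transfected HEK293 cells. Incubation 2 h at room temperature, then Nanoluc substrate was added and the TAMRA/Nanoluc ratio read. IC50 and maximal displacement came from 4-parameter logistic fits.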

The target in data set [2] is IL-23 mediated signalling (Homo sapiens, UniProt Q5VWK5). The data set can be described thus: Functional inhibition of IL-23 mediated STAT3 signalling (phospho-STAT3 MSD) in DB cells. Type of data set: cell-based. The conditions noted are these: DB cells, hIL-23 at EC80; for Emax: maximal inhibitory response, read-out: hIL-23 (pSTAT3) antagonist % inhibition. The procedure, abridged:
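DB cells preincubated with inhibitor 15 min at 37 °C, then stimulated 90 min with EC80 human IL-23; lysate phospho-STAT3 measured by MSD electrochemiluminescence. Signal normalized to IL-23-alone and buffer controls; IC50 and maximal % inhibition from 4-parameter logistic fit.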

Data set [3] in a line: Peptide stability in simulated intestinal fluid (SIF). Type of data set: in vitro ADME. As to conditions: 37 °C, porcine pancreatin; for remaining at 1 h, 10 µM / remaining at 4 h, 10 µM: pig; for remaining at 1 h, 10 µM: pH 6.8, 1 h. The procedure, abridged: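 Peptides were incubated at 37 °C with gentle shaking in pH 6.8 potassium phosphate SIF containing porcine pancreatin (10 g/L). Supernatants were analysed by LC-HRMS. Percent remaining at each timepoint, including 4 h, was calculated relative to time zero from absolute peak areas.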

Data set [4] is described as follows: Peptide stability in simulated gastric fluid (SGF). The conditions noted are these: pig, simulated gastric fluid (SGF) with porcine pepsin (3.2 g/L), pH 1.2, 10 µM, 37 °C, porcine pepsin; for remaining at 1 h, 10 µM: pH 1.2, 1 h, read-out: SGF (% remaining 1 h); for remaining at 4 h, 10 µM: pH 1.2, 4 h, read-out: SGF (% remaining 4 h). Type of data set: in vitro ADME. The gist of the method:
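Peptide incubated at 37 °C with gentle shaking in SGF (NaCl, pH 1.2). Samples centrifuged, diluted and analysed by LC-HRMS; percent remaining at each timepoint from absolute peak areas relative to time zero, with 4 h as the reference point.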

The target of data set [5] is T2, human IL-23R endogenously expressed on DB cells (human, UniProt Q5VWK5 24-629).
T2 sequence (looked up): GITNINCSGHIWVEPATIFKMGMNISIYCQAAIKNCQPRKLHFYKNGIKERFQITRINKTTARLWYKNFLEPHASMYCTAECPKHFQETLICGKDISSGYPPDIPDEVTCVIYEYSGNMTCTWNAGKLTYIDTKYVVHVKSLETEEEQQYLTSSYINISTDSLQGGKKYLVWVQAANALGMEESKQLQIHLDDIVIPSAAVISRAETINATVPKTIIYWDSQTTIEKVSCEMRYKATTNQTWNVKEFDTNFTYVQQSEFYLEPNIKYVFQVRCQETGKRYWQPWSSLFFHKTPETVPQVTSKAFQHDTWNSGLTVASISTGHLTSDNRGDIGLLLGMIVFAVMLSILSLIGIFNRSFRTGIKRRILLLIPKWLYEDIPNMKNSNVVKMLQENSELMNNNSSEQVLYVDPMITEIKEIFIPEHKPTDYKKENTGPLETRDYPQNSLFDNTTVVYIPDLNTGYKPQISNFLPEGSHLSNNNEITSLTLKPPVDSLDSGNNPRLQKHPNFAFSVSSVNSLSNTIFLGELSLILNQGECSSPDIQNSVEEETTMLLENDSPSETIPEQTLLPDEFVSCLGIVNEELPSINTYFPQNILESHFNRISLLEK
The data set can be described thus: cell-based or functional assay.

For data set [6], the target named is T3, Nluc-IL23R fusion protein (human, UniProt Q5VWK5 22-629).
T3 construct: range 22-629; Stably expressed in HEK293 cells; also called hIL-23R; human IL-23R; not shown: Nanoluc protein (N1371, Promega) at the N-terminus, after a secretion signal
T3 sequence (looked up): T1 sequence (Q5VWK5 22-629)
The data set can be described thus: BRET competition vs TAMRA-labelled peptide, Nluc-IL23R membranes. (Bioluminescence resonance energy transfer reports proximity on the nanometre scale.)

[7] abbreviates: Table 3-2, read-out: hIL-23 (pSTAT3) antagonist IC50.
The mark [8] stands for this setting: pH 6.8, 4 h, read-out: SIF (% remaining 4 h).

With `CC(C)C[C@@H]1NC(=O)[C@H](Cc2c[nH]c3ccccc23)NC(=O)[C@H](Cc2c[nH]c3ccccc23)NC(=O)[C@@H]2CSCC(=O)CSC[C@H](NC(=O)[C@H](CO)NC(=O)[C@@H](NC(=O)[C@@H](N)CC(=O)O)CCC(=O)NCCCC[C@@H](C(=O)N[C@@H](CCCNC(=N)N)C(N)=O)NC1=O)C(=O)N[C@@H](Cc1c[nH]c3ccccc13)C(=O)N[C@@H](CCC(N)=O)C(=O)N2` [Ref 4, H-DE(1c)SC(2a)WQC(2a)WWLK(1c)R-[NH2], reference compound] (HELM PEPTIDE1{D.E.S.C.W.Q.C.W.W.L.K.R.[am]}|CHEM1{[O=C(C[*:1])C[*:2]]}$PEPTIDE1,PEPTIDE1,2:R3-11:R3|PEPTIDE1,CHEM1,4:R3-1:R1|PEPTIDE1,CHEM1,7:R3-1:R2$$$V2.0), in data set [1], the “% displacement (hIL-23R NIuc)” value is listed as 100%, the IC50 (commonly the midpoint of a concentration-inhibition curve) was found to be 180 nM and the affinity corresponds to a Ki of 143 nM. For the same molecule, in data set [2] (setting [7]), the half-maximal inhibitory concentration (IC50) was 850 nM. Moreover, the Emax in data set [2] (Table 3-2) worked out at 87%. Also, the remaining at 1 h, 10 µM in data set [3] was 0%. Also, the remaining at 4 h, 10 µM in data set [3] (setting [8]) is 0%. In data set [4], the remaining at 1 h, 10 µM was 1% and the remaining at 4 h, 10 µM is 0%.
Regarding `CNC(=O)[C@H](Cc1cccnc1)NC(=O)[C@H](CCN)NC(=O)[C@@H]1CCC(=O)NCCCC[C@@H]2NC(=O)CC[C@H](NC(=O)[C@H](CCC(N)=O)NC(=O)[C@H](Cc3c[nH]c4ccccc34)NC(=O)CCNC2=O)C(=O)N[C@@H](Cc2ccc(OCCN)cc2)C(=O)N[C@@H](Cc2ccc3ccccc3c2)C(=O)N[C@@](C)(CC(C)C)C(=O)N1` [Compound 45, K(1c)(6c)^†[3-Aminopropanoyl]WQE(6c)[Y(2-aminoethoxy)][2-Nal][2-Me-Leu]E(1c)[Dab][3-(3-Pyridyl)-Ala]-[NHMe]], the “% displacement (hIL-23R NIuc)” value in data set [1] is 100%. Also, the half-maximal inhibitory concentration (IC50) in data set [1] came out at 0.022 nM; in data set [2] (SAR tables 2-1 to 2-7, read-out: IC50 (pSTAT3)), 0.058 nM. In data set [2] (Table 3-2), the Emax was determined as 100%. The “SIF (% remaining 4 h)” value in data set [3] (10 µM, pH 6.8, 4 h) is reported as 87%. The remaining at 1 h, 10 µM is 90% in data set [3] and 98% in data set [4]. The remaining at 4 h, 10 µM in data set [3] (SAR tables, % peptide remaining, pH 6.8, 4 h, read-out: SIF (% after 4 h)) is 87%; in data set [4] it was 103%.
`CC(C)C[C@]1(C)NC(=O)[C@H](Cc2ccc3ccccc3c2)NC(=O)[C@H](Cc2ccc(OCCN)cc2)NC(=O)[C@@H]2CSCC(=O)CSC[C@H](NC(=O)[C@H](CO)NC(=O)c3cccc(c3)CNC(=O)CC[C@@H](C(=O)N[C@H](CCCNC(=N)N)C(N)=O)NC1=O)C(=O)N[C@@H](Cc1c[nH]c3ccccc13)C(=O)N[C@@H](CCC(N)=O)C(=O)N2` [Ref 41, [(3-Aminomethyl)benzoyl](1c)*SC(2a)WQC(2a)[Y(2-aminoethoxy)][2-Nal][2-Me-Leu]E(1c)[{d}R]-[NH2], reference compound] ([3Amb]SCWQC[AEF][2Nal][αMeL]E[dR]-NH2; linker 3-6 via CH2COCH2; lactam N-10): in data set [1], the “% displacement (hIL-23R NIuc)” value is 110%; the IC50 was found to be 2.8 nM; the Ki (as a rule, the equilibrium dissociation constant of an inhibitor or competing ligand from its target) worked out at 2.31 nM. The 50% inhibitory concentration (IC50) in data set [2] (setting [7]) amounted to 29 nM. The Emax in data set [2] (Table 3-2) amounted to 99%. In addition, the remaining at 1 h, 10 µM in data set [3] was 83%. In addition, the remaining at 4 h, 10 µM in data set [3] (setting [8]) is 79%. For the same molecule, in data set [4], the remaining at 1 h, 10 µM is 93% and the remaining at 4 h, 10 µM is 87%.

B1: Compound 99 (peptide)
peptide: [β3hK]GWQE[AEF][2Nal][αMeL]E[Dab][3Pal]-NHMe
modifications: lactam 1-9; lactam (positions not given here); not fully specified (bridges); also: beta-amine of residue 1 is in one of the two lactams
As for B1, in data set [5], the “hIL-23 (pSTAT3) antagonist % inhibition” value is 100% and the “hIL-23 (pSTAT3) antagonist IC50” value amounted to 0.014 nM.

B2: Compound 76 (peptide)
peptide: KTVWQE[AEF][2Nal][Dab]E[Dab][3Pal]
modifications: lactam 1-10, 9-C; lactam (positions not given here); not fully specified (bridges); printed as K(1c)(6c)^{†}TVWQE(6c)[Y(2-aminoethoxy)][2-Nal][Dab](7c)E(1c)[Dab][3-(3-Pyridyl)-Ala](7c)^{‡}
In turn, B2 showed a % displacement in data set [6] of 92%.

B3: Compound 63 (peptide)
peptide: KIVWQE[AEF][2Nal][αMeL]EP[3Pal]-NHMe
modifications: lactam 1-10; lactam (positions not given here); not fully specified (bridges); printed as K(1c)(6c)^{†}IVWQE(6c)[Y(2-aminoethoxy)][2-Nal][2-Me-Leu]E(1c)P[3-(3-Pyridyl)-Ala]-[NHMe]
The molecule B3 had a % displacement in data set [6] of 98%.
As to [4‑Aminomethyl‑phenylacetyl]SEWQ[Dab][AEF][2Nal][αMeL]E[Dab]-NH2 (lactam (positions not given here); bridge 3-6; not fully specified (bridges)) [Ref 125], the “hIL-23 (pSTAT3) antagonist IC50” value in data set [5] was determined as 21 nM.
Take [4‑Aminomethyl‑phenylacetyl]SCWQC[AEF][2Nal][αMeL]ES-NH2 (lactam (positions not given here); bridge 3-6; not fully specified (bridges)) [Ref 81]: in data set [5], the “hIL-23 (pSTAT3) antagonist % inhibition” value was determined as 95% and the “hIL-23 (pSTAT3) antagonist IC50” value was determined as 21 nM.

B4: Compound 79 (peptide)
peptide: K[βAla][Trp(1-Me)]QE[AEF][2Nal][αMeL]E[Dab][3Pal]-NHMe
modifications: lactam 1-9, 1-5; not fully specified; printed as K(1c)(6c)^†[3-Aminopropanoyl][1-Me-Trp]QE(6c)[Y(2-aminoethoxy)][2-Nal][2-Me-Leu]E(1c)[Dab][3-(3-Pyridyl)-Ala]-[NHMe], (1c) [2,11] lactam, (6c) [2,7] lactam, ^† alpha-amine in bridge; also: alpha-amine of residue 1 in bridge, which of the two lactams not given here
Molecule B4 had a % displacement in data set [6] of 100%.
